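Assay format: 96-well plates, 48-hour exposure. GI50 marks 50% less growth.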 Activity calls are given as the source filed them. No stated cut-off is given here; in the data, active = GI50 up to about 1.1 µM and inactive = higher.
Experiments:
Assay in all cases: NCI anticancer screen, dose series, 48 h
786-0 = system: 786-0
A498 = system: A498
A549 = system: A549
ACHN = system: ACHN
BT-549 = system: BT-549
CAKI-1 = system: CAKI-1
CCRF-CEM = system: CCRF-CEM
COLO 205 = system: COLO 205
DLD-1 = system: DLD-1
DMS-114 = system: DMS-114
DMS-273 = system: DMS-273
DU-145 = system: DU-145
EKVX = system: EKVX
HCC 2998 = system: HCC 2998
HCT-116 = system: HCT-116
HCT-15 = system: HCT-15
HL-60 = system: HL-60
HOP-18 = system: HOP-18
HOP-62 = system: HOP-62
HOP-92 = system: HOP-92
HT-29 = system: HT-29
Hs-578T = system: Hs-578T
IGROV-1 = system: IGROV-1
K562 = system: K562
KM-20L2 = system: KM-20L2
KM12 = system: KM12
LOX IMVI = system: LOX IMVI
LXFL 529 = system: LXFL 529
M14 = system: M14
M19-MEL = system: M19-MEL
MCF7 = system: MCF7
MDA-MB-231 = system: MDA-MB-231
MDA-MB-435 = system: MDA-MB-435
MDA-N = system: MDA-N
MOLT-4 = system: MOLT-4
Malme-3M = system: Malme-3M
NCI-H226 = system: NCI-H226
NCI-H23 = system: NCI-H23
NCI-H460 = system: NCI-H460
NCI-H522 = system: NCI-H522
NCI/ADR-RES = system: NCI/ADR-RES
OVCAR-3 = system: OVCAR-3
OVCAR-4 = system: OVCAR-4
OVCAR-5 = system: OVCAR-5
OVCAR-8 = system: OVCAR-8
PC-3 = system: PC-3
RPMI-8226 = system: RPMI-8226
RXF 393 = system: RXF 393
RXF 631 = system: RXF 631
SF-268 = system: SF-268
SF-295 = system: SF-295
SF-539 = system: SF-539
SK-MEL-28 = system: SK-MEL-28
SK-MEL-2 = system: SK-MEL-2
SK-MEL-5 = system: SK-MEL-5
SK-OV-3 = system: SK-OV-3
SN12C = system: SN12C
SNB-19 = system: SNB-19
SNB-75 = system: SNB-75
SNB-78 = system: SNB-78
SR = system: SR
SW-620 = system: SW-620
T47D = system: T47D
TK-10 = system: TK-10
U-251 = system: U-251
UACC-257 = system: UACC-257
UACC-62 = system: UACC-62
UO-31 = system: UO-31
XF498 = system: XF498

SMILES: CCCCCCCCCCNC1CC(OC2CC(O)(C(O)CO)Cc3c(O)c4c(c(O)c32)C(=O)c2c(OC)cccc2C4=O)OC(C)C1O (centres undefined)
- GI50 (786-0): 1840 nM (inactive)
- GI50 (A498): 1500 nM (inactive)
- GI50 (A549): 1580 nM (inactive)
- GI50 (ACHN): 1730 nM (inactive)
- GI50 (BT-549): 1700 nM (inactive)
- GI50 (CAKI-1): 1680 nM (inactive)
- GI50 (CCRF-CEM): 388 nM (active)
- GI50 (COLO 205): 1660 nM (inactive)
- GI50 (DLD-1): 1130 nM (inactive)
- GI50 (DMS-114): 1460 nM (inactive)
- GI50 (DMS-273): 1790 nM (inactive)
- GI50 (DU-145): 1790 nM (inactive)
- GI50 (EKVX): 1780 nM (inactive)
- GI50 (HCC 2998): 1330 nM (inactive)
- GI50 (HCT-116): 692 nM (active)
- GI50 (HCT-15): 1560 nM
- GI50 (HL-60): 434 nM (active)
- GI50 (HOP-18): 1870 nM (inactive)
- GI50 (HOP-62): 1660 nM (inactive)
- GI50 (HOP-92): 1470 nM (inactive)
- GI50 (HT-29): 1330 nM (inactive)
- GI50 (Hs-578T): 1670 nM (inactive)
- GI50 (IGROV-1): 1740 nM (inactive)
- GI50 (K562): 324 nM (active)
- GI50 (KM-20L2): 1690 nM (inactive)
- GI50 (KM12): 1500 nM (inactive)
- GI50 (LOX IMVI): 641 nM (active)
- GI50 (LXFL 529): 731 nM (active)
- GI50 (M14): 1690 nM (inactive)
- GI50 (M19-MEL): 1650 nM (inactive)
- GI50 (MCF7): 1010 nM (active)
- GI50 (MDA-MB-231): 1360 nM (inactive)
- GI50 (MDA-MB-435): 1770 nM (inactive)
- GI50 (MDA-N): 1500 nM (inactive)
- GI50 (MOLT-4): 189 nM (active)
- GI50 (Malme-3M): 1940 nM (inactive)
- GI50 (NCI-H226): 1790 nM (inactive)
- GI50 (NCI-H23): 2630 nM (inactive)
- GI50 (NCI-H460): 601 nM (active)
- GI50 (NCI-H522): 1760 nM (inactive)
- GI50 (NCI/ADR-RES): 1880 nM (inactive)
- GI50 (OVCAR-3): 1690 nM (inactive)
- GI50 (OVCAR-4): 1530 nM (inactive)
- GI50 (OVCAR-5): 1800 nM (inactive)
- GI50 (OVCAR-8): 1550 nM (inactive)
- GI50 (PC-3): 1470 nM (inactive)
- GI50 (RPMI-8226): 839 nM (active)
- GI50 (RXF 393): 1260 nM (inactive)
- GI50 (RXF 631): 1530 nM (inactive)
- GI50 (SF-268): 1920 nM (inactive)
- GI50 (SF-295): 1900 nM (inactive)
- GI50 (SF-539): 1770 nM (inactive)
- GI50 (SK-MEL-28): 1760 nM (inactive)
- GI50 (SK-MEL-2): 1400 nM (inactive)
- GI50 (SK-MEL-5): 1740 nM (inactive)
- GI50 (SK-OV-3): 1600 nM (inactive)
- GI50 (SN12C): 1650 nM (inactive)
- GI50 (SNB-19): 1880 nM (inactive)
- GI50 (SNB-75): 1620 nM (inactive)
- GI50 (SNB-78): 1840 nM (inactive)
- GI50 (SR): 408 nM (active)
- GI50 (SW-620): 791 nM (active)
- GI50 (T47D): 1860 nM (inactive)
- GI50 (TK-10): 4440 nM (inactive)
- GI50 (U-251): 986 nM (active)
- GI50 (UACC-257): 1720 nM (inactive)
- GI50 (UACC-62): 1790 nM (inactive)
- GI50 (UO-31): 1770 nM (inactive)
- GI50 (XF498): 1910 nM (inactive)
